Reference: patent US20100130439A1, “GENOMIC MUTATION INHIBITORS THAT INHIBIT Y FAMILY DNA POLYMERASES” (priority 2007, published 2010)

Assays:
[1] = system: triclosan-resistant mutants; assay: MIC of isolated triclosan-resistant colonies; type: cell-based, E. coli; conditions: Escherichia coli
Method: (§1) Characterization of mutants. The MICs were determined of over one hundred isolated antibiotic-resistant colonies. All of the ciprofloxacin-resistant mutants had MICs of 480 ng/mL (FIG. 2B). The ciprofloxacin resistance mutants contained a CG to TA transition translating into a Ser 83→Leu mutation in DNA gyrase. This mutation is known to provide the greatest ciprofloxacin resistance obtainable in a single step (Drlica K, Zhao X (1997) Microbiol Mol Biol Rev 61: 377-392).
The vast majority of isolated triclosan-resistant mutants (˜85%) had MICs of 16 μg/mL. These colonies had acquired a GC to TA transversion resulting in a Gly 93→Val mutation in FabI, the known protein target of triclosan (FIG. 2B). This mutation is known to produce the greatest triclosan resistance possible via a single step (McMurry L, Oethinger M, Levy S (1998) Nature 394: 531-532). […] It is, therefore, reasonable that the frequency of UV-induced triclosan-resistant mutants is considerably lower (˜8-fold) than the frequency of UV-induced ciprofloxacin-resistant mutants. The remaining triclosan-resistant mutants (˜15%) had MICs between 2-4 μg/mL. These included three different mutations of Phe 203 in FabI: a TA to CG transition giving serine, a TA to GC transversion giving valine, and a TA to GC transversion giving cystine (FIG. 2B). […]

[2] = system: most gram-negative bacteria; conditions: Elwell et al. 1987; cited from earlier work
[3] = system: wild-type and the isolated mutant cells; assay: MIC of AZT against wild-type and isolated mutant cells; type: cell-based, E. coli
Method: as §1

CC 102 = assay: MIC of AZT against CC102; type: cell-based, E. coli; conditions: Escherichia coli, read-out: AZT MIC
Source text: One strain, CC102, required a GC to AT transition.

[4] = system: ciprofloxacin-resistant mutants; assay: MIC of isolated ciprofloxacin-resistant colonies; type: cell-based, E. coli; conditions: Escherichia coli
Method: as §1

[5] = system: wild-type MG1655 K12 E. coli; type: cell-based; conditions: d4T 6 μg/mL

SMILES: Oc1cc(Cl)ccc1Oc1ccc(Cl)cc1Cl [triclosan]
- MIC ([1]; remaining (~15%) triclosan-resistant mutants (FabI Phe 203 mutations)): 2 to 4 µg/mL
- MIC ([1]; vast majority (~85%) of triclosan-resistant mutants (FabI Gly 93→Val)): 16 µg/mL

SMILES: Cc1cn([C@H]2C[C@H](N=[N+]=[N-])[C@@H](CO)O2)c(=O)[nH]c1=O [AZT, 3′-azido-2′-deoxythymidine]
- antibacterial activity [2]: antibacterial activity
- MIC ([3]; both the wild-type and the isolated ciprofloxacin-/triclosan-resistant mutant cells): 0.01 µg/mL
- sensitivity to AZT ([3]; several rifampicin-resistant mutants): varying sensitivities
- MIC (CC 102): 0.02 µg/mL

SMILES: O=C(O)c1cn(C2CC2)c2cc(N3CCNCC3)c(F)cc2c1=O [ciprofloxacin]
- MIC [4]: 0.48 µg/mL

SMILES: Cc1cn([C@H]2C=C[C@@H](CO)O2)c(=O)[nH]c1=O [d4T, 2′,3′-didehydro-3′-deoxythymidine]
- antibacterial activity [2]: antibacterial activity
- UV-induced generation of mutations that confer resistance to ciprofloxacin [5]: inhibits
